Test results published in paper PMC12685177, “Structures of G-protein coupled receptor HCAR3 in complex with selective agonists reveal the basis for ligand recognition and selectivity” (PLOS Biology, 2025).
“And” between values parts separate entries of the source, which are not always exact repeats. Equal entries are not always repeated. Where two headings read alike, the source gives them in different places.

Experiments:
HCAR2 N86L = experiment: cAMP assay, homology-mutated HCAR2 at residue 86 (N86L); format: cell-based, human
Experimental: The cAMP levels were quantified using the cAMP-Gi kit from Perkin Elmer (model TRF0263), adhering to the manufacturer’s guidelines. […] After 36 hours, the cells, once rinsed with PBS, were treated with a stimulation buffer,including 500 μM IBMX, and incubated for 30 min in a 384-well plate maintained at 37 °C, with a seeding density of 4,000 cells per well. This step was followed by the addition of 12 μM forskolin to each well, with the incubation continuing for an additional 45 min at the same temperature. Subsequently, each well received 5 μL of the cAMP Eu-cryptate solution and the anti-cAMP-d2 solution, and the mixture was incubated for 1 hour at room temperature [45]. […] The acquired data were analyzed using GraphPad Prism version 9.0, with statistical significance set at p < 0.05. All experimental procedures were replicated three times to ensure accuracy.

HCAR3 = conditions: cited from earlier work; for affinity difference to HCAR3 compared to HCAR2: previously reported; for higher affinity to HCAR3 than to HCAR2: HCAR3 vs HCAR2
HCAR3 R111A = biological target: T1, HCAR3 R111A (Homo sapiens, UniProt P49019, R111A); experiment: cAMP assay, HCAR3 R111A mutant; format: cell-based; conditions: HCAR3 R111A vs WT
T1 construct: Full-length variants of HCAR3 and HCAR2, including specific point mutations, were incorporated into pcDNA3.1 vectors; FLAG; expressed in transfected cells
Experimental: Full-length variants of HCAR3 and HCAR2, including specific point mutations, were incorporated into pcDNA3.1 vectors for conducting cAMP assays. The cAMP levels were quantified using the cAMP-Gi kit from Perkin Elmer (model TRF0263), adhering to the manufacturer’s guidelines. […] Cells were transiently transfected with either wild-type or mutant HCAR3 plasmids (at a dosage of 500 ng per well in a 24-well format) using Lipofectamine 3000 (Invitrogen). After 36 hours, the cells, once rinsed with PBS, were treated with a stimulation buffer,including 500 μM IBMX, and incubated for 30 min in a 384-well plate maintained at 37 °C, with a seeding density of 4,000 cells per well. This step was followed by the addition of 12 μM forskolin to each well, with the incubation continuing for an additional 45 min at the same temperature. Subsequently, each well received 5 μL of the cAMP Eu-cryptate solution and the anti-cAMP-d2 solution, and the mixture was incubated for 1 hour at room temperature [45]. Fluorescence readings at 620/665 nm were then gathered using a multimode plate reader (Perkin Elmer EnVision 2105) [46]. The acquired data were analyzed using GraphPad Prism version 9.0, with statistical significance set at p < 0.05. All experimental procedures were replicated three times to ensure accuracy.

wild-type HCAR3 = biological target: T2, wild-type HCAR3 (Homo sapiens, UniProt P49019); experiment: Surface plasmon resonance measurement (Biacore X100), wild-type HCAR3; format: binding; conditions: 6O, PLA, IBC293, acifran compared
T2 construct: expression of the entire length of human HCAR3 and HCAR2 proteins; FLAG (N); 3C protease cleavage site (N); His (C); made in house

wild-type HCAR2 [1] = biological target: T3, wild-type HCAR2 (Homo sapiens, UniProt Q8TDS4); format: binding; set-up: SPR sensorgram response, Acifran-HCAR2: unit not given here
T3 construct: expression of the entire length of human HCAR3 and HCAR2 proteins; FLAG (N); 3C protease cleavage site (N); His (C); made in house

wild-type HCAR2 [2] = format: binding, human; set-up: SPR sensorgram response, Acifran-HCAR2: unit not given here

T3 sequence (Q8TDS4 whole entry): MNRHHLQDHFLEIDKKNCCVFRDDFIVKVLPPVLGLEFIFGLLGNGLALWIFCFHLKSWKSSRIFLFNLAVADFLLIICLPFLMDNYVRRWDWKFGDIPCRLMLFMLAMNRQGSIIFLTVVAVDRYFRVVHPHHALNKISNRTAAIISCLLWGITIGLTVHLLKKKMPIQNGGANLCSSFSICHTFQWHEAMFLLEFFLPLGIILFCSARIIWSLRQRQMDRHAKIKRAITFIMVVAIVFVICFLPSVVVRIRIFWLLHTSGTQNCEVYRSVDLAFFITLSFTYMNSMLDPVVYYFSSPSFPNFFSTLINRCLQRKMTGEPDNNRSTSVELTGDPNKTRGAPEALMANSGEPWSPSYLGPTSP
T1 sequence (P49019 whole entry R111A): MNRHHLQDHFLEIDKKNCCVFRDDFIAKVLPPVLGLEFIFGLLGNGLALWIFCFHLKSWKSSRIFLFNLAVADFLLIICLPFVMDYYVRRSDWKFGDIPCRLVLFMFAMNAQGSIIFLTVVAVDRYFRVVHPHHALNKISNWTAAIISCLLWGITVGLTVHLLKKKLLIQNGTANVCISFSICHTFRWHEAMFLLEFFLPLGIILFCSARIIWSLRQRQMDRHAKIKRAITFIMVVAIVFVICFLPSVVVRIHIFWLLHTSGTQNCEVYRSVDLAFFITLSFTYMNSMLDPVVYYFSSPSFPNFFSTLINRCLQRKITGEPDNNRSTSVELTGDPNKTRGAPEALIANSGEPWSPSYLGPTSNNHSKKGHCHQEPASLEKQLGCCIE
T2 sequence (P49019 whole entry): as the sequence (P49019 whole entry R111A) above, with A111R counted along it

In the case of O=C(O)C(O)Cc1ccccc1 [PLA, D-phenyllactic acid], the “cAMP response (normalized)” value (HCAR2 N86L; PLA-HCAR2 N86L, log[M] -3, Fig. S14D) is reported as 52.7872 and 58.3693 and 59.0285, the “cAMP response (normalized)” value (HCAR2 N86L; PLA-HCAR2 N86L, log[M] -4, Fig. S14D) is reported as 77.5234 and 72.7009 and 60.409 and the “cAMP response (normalized)” value (HCAR2 N86L; PLA-HCAR2 N86L, log[M] -5, Fig. S14D) is reported as 76.3988 and 76.6951 and 70.3605. For the same molecule, the “cAMP response (normalized)” value (HCAR2 N86L; PLA-HCAR2 N86L, log[M] -6, Fig. S14D) was 100.996 and 89.6375 and 92.8244, the “cAMP response (normalized)” value (HCAR2 N86L; PLA-HCAR2 N86L, log[M] -7, Fig. S14D) was 92.0146 and 97.7923 and 90.5493 and the “cAMP response (normalized)” value (HCAR2 N86L; PLA-HCAR2 N86L, log[M] -8, Fig. S14D) was 94.5951 and 98.3127 and 96.313. For the same molecule, the “cAMP response (normalized)” value (HCAR2 N86L; PLA-HCAR2 N86L, log[M] -9, Fig. S14D) was 99.4667 and 89.0551 and 95.4388, the “cAMP response (normalized)” value (HCAR2 N86L; PLA-HCAR2 N86L, log[M] -10, Fig. S14D) was 94.992 and 94.7429 and 103.357 and the “affinity difference to HCAR3 compared to HCAR2” value (from here on “affinity difference to HCAR3”) (HCAR3) was 100- to 1,000 fold.
With CC(C)n1nnc2cc(C(=O)O)ccc21 [IBC293, 1-propan-2-ylbenzotriazole-5-carboxylic acid] the “effect of R111A mutation on agonist action at HCAR3 (cAMP assay)” value (HCAR3 R111A) was “barely interfered HCAR3 activation”, the “cAMP response (normalized)” value (HCAR2 N86L; IBC293-HCAR2 N86L, log[M] -3, Fig. S14C) was 79.8778 and 75.4919 and 74.9151 and the “cAMP response (normalized)” value (HCAR2 N86L; IBC293-HCAR2 N86L, log[M] -4, Fig. S14C) was 76.5789 and 72.1623 and 89.1848. For the same molecule, the “cAMP response (normalized)” value (HCAR2 N86L; IBC293-HCAR2 N86L, log[M] -5, Fig. S14C) was 83.4897 and 75.4819 and 86.0148, the “cAMP response (normalized)” value (HCAR2 N86L; IBC293-HCAR2 N86L, log[M] -6, Fig. S14C) was 92.474 and 94.1647 and 90.5718 and the “cAMP response (normalized)” value (HCAR2 N86L; IBC293-HCAR2 N86L, log[M] -7, Fig. S14C) was 100.025 and 101.905 and 97.6855. For the same molecule, the “cAMP response (normalized)” value (HCAR2 N86L; IBC293-HCAR2 N86L, log[M] -8, Fig. S14C) was 96.4886 and 103.749 and 98.8962, the “cAMP response (normalized)” value (HCAR2 N86L; IBC293-HCAR2 N86L, log[M] -9, Fig. S14C) was 106.585 and 93.0489 and 96.2716 and the “cAMP response (normalized)” value (HCAR2 N86L; IBC293-HCAR2 N86L, log[M] -10, Fig. S14C) was 101.501 and 101.566 and 98.9795. The “higher affinity to HCAR3 than to HCAR2” value (HCAR3) was “at least 100 fold” and the “affinity difference to HCAR3” value (HCAR3) was 100- to 1,000 fold.
With O=C(O)c1cc(N(Cc2ccsc2)Cc2ccsc2)n[nH]1 [6O, 3-[bis(thiophen-3-ylmethyl)amino]-1H-pyrazole-5-carboxylic acid] the “cAMP response (normalized)” value (HCAR2 N86L; 6O-HCAR2 N86L, log[M] -3, Fig. S14B) was 75.8023 and 73.3702 and 70.1872, the “cAMP response (normalized)” value (HCAR2 N86L; 6O-HCAR2 N86L, log[M] -4, Fig. S14B) was 70.0938 and 69.3817 and 72.4279 and the “cAMP response (normalized)” value (HCAR2 N86L; 6O-HCAR2 N86L, log[M] -5, Fig. S14B) was 77.2869 and 68.2771 and 76.7503. The “cAMP response (normalized)” value (HCAR2 N86L; 6O-HCAR2 N86L, log[M] -6, Fig. S14B) was 87.0105 and 88.7719 and 89.0756, the “cAMP response (normalized)” value (HCAR2 N86L; 6O-HCAR2 N86L, log[M] -7, Fig. S14B) was 92.1091 and 85.2704 and 84.4838 and the “cAMP response (normalized)” value (HCAR2 N86L; 6O-HCAR2 N86L, log[M] -8, Fig. S14B) was 95.6219 and 96.9675 and 90.6554. For the same molecule, the “cAMP response (normalized)” value (HCAR2 N86L; 6O-HCAR2 N86L, log[M] -9, Fig. S14B) was 95.5893 and 94.7012 and 97.44, the “cAMP response (normalized)” value (HCAR2 N86L; 6O-HCAR2 N86L, log[M] -10, Fig. S14B) was 99.7701 and 103.601 and 102.183 and the “efficacy among the four ligands by surface plasmon resonance” value (wild-type HCAR3) was “highest efficacy among these four ligands”. The “higher affinity to HCAR3 than to HCAR2” value (HCAR3) was “at least 100 fold” and the “affinity difference to HCAR3” value (HCAR3) was 100- to 1,000 fold.
With CC1(c2ccccc2)OC(C(=O)O)=CC1=O (stereo not drawn) [Acifran, acifran] the “cAMP response (normalized)” value (HCAR2 N86L; Acifran-HCAR2 N86L, log[M] -3, Fig. S12E) was 51.1208 and 61.7941 and 63.8756, the “cAMP response (normalized)” value (HCAR2 N86L; Acifran-HCAR2 N86L, log[M] -4, Fig. S12E) was 60.2042 and 54.7738 and 52.0221 and the “cAMP response (normalized)” value (HCAR2 N86L; Acifran-HCAR2 N86L, log[M] -5, Fig. S12E) was 64.2273 and 75.5651 and 74.1332. For the same molecule, the “cAMP response (normalized)” value (HCAR2 N86L; Acifran-HCAR2 N86L, log[M] -6, Fig. S12E) was 84.0136 and 74.6749, the “cAMP response (normalized)” value (HCAR2 N86L; Acifran-HCAR2 N86L, log[M] -7, Fig. S12E) was 89.2308 and 93.0182 and the “cAMP response (normalized)” value (HCAR2 N86L; Acifran-HCAR2 N86L, log[M] -8, Fig. S12E) was 92.6771 and 91.0418. For the same molecule, the “cAMP response (normalized)” value (HCAR2 N86L; Acifran-HCAR2 N86L, log[M] -9, Fig. S12E) was 100.347 and 91.8401 and 97.0308, the “cAMP response (normalized)” value (HCAR2 N86L; Acifran-HCAR2 N86L, log[M] -10, Fig. S12E) was 103.679 and the “SPR sensorgram response, Acifran-HCAR2” value (wild-type HCAR2 [1]; acifran concentration 0.025 (unit not given), c2 value 159.6 (head printed log[M])) was -15.5002. For the same molecule, the “SPR sensorgram response, Acifran-HCAR2” value (wild-type HCAR2 [1]; acifran concentration 0.025 (unit not given), c2 value 160.6 (head printed log[M])) was -15.3633, the “SPR sensorgram response, Acifran-HCAR2” value (wild-type HCAR2 [1]; acifran concentration 0.05 (unit not given), c2 value 159.6 (head printed log[M])) was -16.3767 and the “SPR sensorgram response, Acifran-HCAR2” value (wild-type HCAR2 [1]; acifran concentration 0.1 (unit not given), c2 value 159.6 (head printed log[M])) was -16.3472. The “SPR sensorgram response, Acifran-HCAR2” value (wild-type HCAR2 [1]; acifran concentration 0.4 (unit not given), c2 value 159.6 (head printed log[M])) was -15.8456 and the “affinity difference acifran-HCAR2 vs acifran-HCAR3” value (wild-type HCAR2 [2]) was ~ 100 fold.
